Source: patent US7338950B2, “Amide compounds as ion channel ligands and uses thereof” (Renovis, Inc., priority 2003, dated 2008)

Each compound was assayed on VR1 receptor (293 cells expressing capsaicin-insensitive VR1 receptor variants) (assay: High throughput screening of VR1 antagonists using a calcium imaging assay (Fura2, pH 5.1 stimulus)). Settings: 1 uM compound; inhibition of calcium ion influx.
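Also: Fura2 ratiometric fluorescence read every 4 s over 3 min, response taken as peak ratio minus baseline before pre-treatment, compound pre-treatment preceding acid challenge.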
From the text: A dual wavelength ratiometric dye, Fura2, was used as an indicator of relative levels of calcium ions in a 96 well format using a bench top scanning fluorometer with integrated fluidics and temperature control (Flex Station, Molecular Devices).
A dual wavelength ratiometric dye, Fura2, was used as an indicator of relative levels of [Ca2+] in a 96 well format using a bench top scanning fluorometer with integrated fluidics and temperature control (Flex Station, Molecular Devices).
293 cells were grown on PDL coated 96-well black-walled plates, in the presence of a DMEM medium containing 5% Penstrep, 5% Glutamax, 200 ug/mL Hygromycin, 5 μg/mL Blasticide and 10% heat inactivated FBS. Prior to assay, the cells were loaded with 5 μg/mL Fura2 in normal saline solution at 37° C. for 40 minutes. Cells were then washed with normal saline to remove the dye.
The assay consists of two stages; a pre-treatment phase followed by a treatment phase.
50 μl of a compound solution was added to the cells (Pre-treatment). Immediately following, 50 μl of the test compound in a saline solution at pH 5.1 was added. […] Changes in wavelength measurements were made throughout the course of the experiment in 4 second intervals over a period of 3 minutes. Responses were measured as peak fluorescence ratio after test compound addition minus baseline fluorescence ratio prior to pre-treatment and were calculated using SoftMaxPro softwareData were expressed as percentage inhibition calculated using Excel as follows:

SMILES	% Inhibition @ 1 uM
O=C(Nc1ccc(F)c(F)c1)c1ccc(-c2ncccc2Cl)c(F)c1 [Compound 1195]	+++ (compound exhibited 50-75% inhibition of calcium ion influx induced by capsaicin stimulation)
COc1ccc(NC(=O)c2ccc(-c3ncccc3Cl)cc2)cc1O [Compound 1288]	+ (compound exhibited 0-25% inhibition of calcium ion influx induced by capsaicin stimulation)
O=C(Nc1ccc2ncccc2c1)c1ccc(-c2ncccc2Cl)cc1 [Compound 1071]	+ (compound exhibited 0-25% inhibition of calcium ion influx induced by capsaicin stimulation)
O=C(Nc1cccc(OC(F)(F)F)c1)c1ccc(-c2ncccc2Cl)cc1 [Compound 1294]	+ (compound exhibited 0-25% inhibition of calcium ion influx induced by capsaicin stimulation)
O=C(Nc1ccc(C(F)(F)F)cc1)c1ccc(-c2ncccc2Cl)cc1 [Compound 1035]	++++ (compound exhibited 75% or greater inhibition of calcium ion influx induced by capsaicin stimulation)
COc1cccc(NC(=O)c2ccc(-c3ncccc3Cl)c(OC)c2)c1 [Compound 1213]	++ (compound exhibited 25-50% inhibition of calcium ion influx induced by capsaicin stimulation)
O=C(Nc1cccc(Br)c1)c1ccc(-c2ncccc2Cl)cc1F [Compound 1100]	++++ (compound exhibited 75% or greater inhibition of calcium ion influx induced by capsaicin stimulation)
COc1cc(C(=O)Nc2cccc(C#N)c2)ccc1-c1ncccc1Cl [Compound 1218]	++++ (compound exhibited 75% or greater inhibition of calcium ion influx induced by capsaicin stimulation)
COc1cc(C(=O)Nc2ccc(C#N)c(Cl)c2)ccc1-c1ncccc1Cl [Compound 1265]	++++ (compound exhibited 75% or greater inhibition of calcium ion influx induced by capsaicin stimulation)
O=C(Nc1ccc2c(c1)OCO2)c1ccc(-c2ncccc2Cl)cc1 [Compound 1051]	+ (compound exhibited 0-25% inhibition of calcium ion influx induced by capsaicin stimulation)
O=C(Nc1ccc(N2CCOCC2)cc1)c1ccc(-c2ncccc2Cl)cn1 [Compound 1334]	+ (compound exhibited 0-25% inhibition of calcium ion influx induced by capsaicin stimulation)
O=C(Nc1ccc2ncccc2c1)c1ccc(-c2ncccc2Cl)c(F)c1 [Compound 1173]	++++ (compound exhibited 75% or greater inhibition of calcium ion influx induced by capsaicin stimulation)
COc1cc(C(=O)Nc2cccc(Cl)c2Cl)ccc1-c1ncccc1Cl [Compound 1216]	++++ (compound exhibited 75% or greater inhibition of calcium ion influx induced by capsaicin stimulation)
Cc1cc(C)nc(NC(=O)c2ccc(-c3ncccc3Cl)c(F)c2)c1 [Compound 1156]	+ (compound exhibited 0-25% inhibition of calcium ion influx induced by capsaicin stimulation)
O=C(Nc1ccccc1O)c1ccc(-c2ncccc2Cl)cc1F [Compound 1084]	+ (compound exhibited 0-25% inhibition of calcium ion influx induced by capsaicin stimulation)
O=C(Nc1ccnc(Cl)c1)c1ccc(-c2ncccc2Cl)cn1 [Compound 1342]	+ (compound exhibited 0-25% inhibition of calcium ion influx induced by capsaicin stimulation)
CCCc1ccccc1NC(=O)c1ccc(-c2ncccc2Cl)c(F)c1 [Compound 1135]	+ (compound exhibited 0-25% inhibition of calcium ion influx induced by capsaicin stimulation)
CCCc1ccccc1NC(=O)c1ccc(-c2ncccc2Cl)c(OC)c1 [Compound 1212]	++ (compound exhibited 25-50% inhibition of calcium ion influx induced by capsaicin stimulation)
COc1ccc(NC(=O)c2ccc(-c3ncccc3Cl)cn2)cc1O [Compound 1355]	++ (compound exhibited 25-50% inhibition of calcium ion influx induced by capsaicin stimulation)
Cc1cc(C)nc(NC(=O)c2ccc(-c3ncccc3Cl)cc2)c1 [Compound 1054]	+ (compound exhibited 0-25% inhibition of calcium ion influx induced by capsaicin stimulation)
O=C(Nc1ccc(N2CCOCC2)c(Cl)c1)c1ccc(-c2ncccc2Cl)cc1 [Compound 1301]	+++ (compound exhibited 50-75% inhibition of calcium ion influx induced by capsaicin stimulation)
N#Cc1ccccc1NC(=O)c1ccc(-c2ncccc2Cl)cc1 [Compound 1028]	+ (compound exhibited 0-25% inhibition of calcium ion influx induced by capsaicin stimulation)
COc1ccc(NC(=O)c2ccc(-c3ncccc3Cl)c(F)c2)cc1O [Compound 1187]	++ (compound exhibited 25-50% inhibition of calcium ion influx induced by capsaicin stimulation)
CC(C)Oc1cccc(NC(=O)c2ccc(-c3ncccc3Cl)cn2)c1 [Compound 1362]	+ (compound exhibited 0-25% inhibition of calcium ion influx induced by capsaicin stimulation)
O=C(Nc1ccc(Cl)nc1)c1ccc(-c2ncccc2Cl)cc1 [Compound 1048]	+ (compound exhibited 0-25% inhibition of calcium ion influx induced by capsaicin stimulation)
COc1cc(C(=O)Nc2ccc(C(F)(F)F)cc2)ccc1-c1ncccc1Cl [Compound 1230]	++ (compound exhibited 25-50% inhibition of calcium ion influx induced by capsaicin stimulation)

SMILES	% Inhibition @ 1 uM
COc1ccccc1NC(=O)c1ccc(-c2ncccc2Cl)cc1 [Compound 1030]	++++ (compound exhibited 75% or greater inhibition of calcium ion influx induced by capsaicin stimulation)
O=C(Nc1ccc([N+](=O)[O-])cc1)c1ccc(-c2ncccc2Cl)cc1 [Compound 1073]	++++ (compound exhibited 75% or greater inhibition of calcium ion influx induced by capsaicin stimulation)
O=C(Nc1cccc(Cl)c1Cl)c1ccc(-c2ncccc2Cl)c(F)c1 [Compound 1139]	++++ (compound exhibited 75% or greater inhibition of calcium ion influx induced by capsaicin stimulation)
O=C(Nc1ccncc1)c1ccc(-c2ncccc2Cl)c(F)c1 [Compound 1157]	++++ (compound exhibited 75% or greater inhibition of calcium ion influx induced by capsaicin stimulation)
Cc1ccnc(NC(=O)c2ccc(-c3ncccc3Cl)cn2)c1 [Compound 1335]	+ (compound exhibited 0-25% inhibition of calcium ion influx induced by capsaicin stimulation)
O=C(Nc1ccc(OC(F)(F)F)cc1)c1ccc(-c2ncccc2Cl)cc1 [Compound 1293]	+ (compound exhibited 0-25% inhibition of calcium ion influx induced by capsaicin stimulation)
O=C(Nc1ccc(F)cc1)c1ccc(-c2ncccc2Cl)cn1 [Compound 1308]	+ (compound exhibited 0-25% inhibition of calcium ion influx induced by capsaicin stimulation)
COc1cc(C(=O)Nc2cccnc2)ccc1-c1ncccc1Cl [Compound 1236]	+ (compound exhibited 0-25% inhibition of calcium ion influx induced by capsaicin stimulation)
COc1cc(C(=O)Nc2ccccc2)ccc1-c1ncccc1Cl [Compound 1206]	+ (compound exhibited 0-25% inhibition of calcium ion influx induced by capsaicin stimulation)
CCCCc1ccc(NC(=O)c2ccc(-c3ncccc3Cl)cc2)cc1 [Compound 1043]	++ (compound exhibited 25-50% inhibition of calcium ion influx induced by capsaicin stimulation)
COc1cc(C(=O)Nc2cccc(C(=O)O)c2)ccc1-c1ncccc1Cl [Compound 1258]	+ (compound exhibited 0-25% inhibition of calcium ion influx induced by capsaicin stimulation)
O=C(Nc1ccc2[nH]ccc2c1)c1ccc(-c2ncccc2Cl)cc1 [Compound 1021]	++++ (compound exhibited 75% or greater inhibition of calcium ion influx induced by capsaicin stimulation)
O=C(Nc1ccc(F)cc1)c1ccc(-c2ncccc2Cl)c(F)c1 [Compound 1131]	+ (compound exhibited 0-25% inhibition of calcium ion influx induced by capsaicin stimulation)
O=C(Nc1ccc2ccccc2c1)c1ccc(-c2ncccc2Cl)c(F)c1 [Compound 1177]	++++ (compound exhibited 75% or greater inhibition of calcium ion influx induced by capsaicin stimulation)
COc1cc(C(=O)Nc2ccncn2)ccc1-c1ncccc1Cl [Compound 1242]	++ (compound exhibited 25-50% inhibition of calcium ion influx induced by capsaicin stimulation)
CN1CCCc2ccc(NC(=O)c3ccc(-c4ncccc4Cl)cc3)cc21 [Compound 1304]	+ (compound exhibited 0-25% inhibition of calcium ion influx induced by capsaicin stimulation)
O=C(Nc1ccccc1)c1ccc(-c2ncccc2Cl)cn1 [Compound 1306]	++++ (compound exhibited 75% or greater inhibition of calcium ion influx induced by capsaicin stimulation)
CCCOc1ccc(NC(=O)c2ccc(-c3ncccc3Cl)cn2)cc1 [Compound 1358]	+ (compound exhibited 0-25% inhibition of calcium ion influx induced by capsaicin stimulation)
COc1cc(C(=O)Nc2ccc(OC)c(C(F)(F)F)c2)ccc1-c1ncccc1Cl [Compound 1275]	++ (compound exhibited 25-50% inhibition of calcium ion influx induced by capsaicin stimulation)
CCCOc1ccc(NC(=O)c2ccc(-c3ncccc3Cl)c(F)c2)cc1 [Compound 1190]	++ (compound exhibited 25-50% inhibition of calcium ion influx induced by capsaicin stimulation)
O=C(Nc1ccc2ncccc2c1)c1ccc(-c2ncccc2Cl)cn1 [Compound 1344]	+ (compound exhibited 0-25% inhibition of calcium ion influx induced by capsaicin stimulation)
O=C(Nc1ccc(Cl)c(C(=O)O)c1)c1ccc(-c2ncccc2Cl)c(F)c1 [Compound 1183]	++++ (compound exhibited 75% or greater inhibition of calcium ion influx induced by capsaicin stimulation)
COc1cccc(NC(=O)c2ccc(-c3ncccc3Cl)cc2)c1 [Compound 1019]	+ (compound exhibited 0-25% inhibition of calcium ion influx induced by capsaicin stimulation)
COc1ccc(NC(=O)c2ccc(-c3ncccc3Cl)c(F)c2)cc1Cl [Compound 1151]	++++ (compound exhibited 75% or greater inhibition of calcium ion influx induced by capsaicin stimulation)
CN(C)c1cccc(NC(=O)c2ccc(-c3ncccc3Cl)cc2F)c1 [Compound 1086]	+ (compound exhibited 0-25% inhibition of calcium ion influx induced by capsaicin stimulation)
